Measured values taken from patent publication EP0548931A1, “Material for controlling pests” (SUMITOMO CHEMICAL COMPANY, LIMITED, priority 1991, dated 1993).

Assays:
Thrips palmi = assay: Test Example 3: blue cloth material (Production Example 3) in glass vessel with cucumber seedlings, count of adults; format: in vivo; settings: 0.16 mg/cm², 28° ±1°C
Description: The same procedure as in Production Example 2 is repeated except that a blue cloth replaces the yellow cloth, to obtain a material for controlling pests containing 0.16 mg/cm² of the active ingredient.
Soil was placed on the bottom of a glass vessel of 70 cm x 35 cm x 35 cm in size. Three cucumber seedlings, on which Thrips palmi had been parasitized, were planted at the central part of the glass vessel. After three days, a material for controlling pests with pyriproxyfen as insect growth regulator prepared according to Production Example 3 was formed into a size of 15 cm x 15 cm and set at a height of 5 cm above the ground. On the other hand, the same test was carried out using a blue cloth containing no insect growth regulator as a control.
On the predetermined day, the number of Thrips palmi adults parasitized on the cucumbers was counted. The tests were carried out in a room kept at 28° ±1°C.

sweetpotato whitefly [1] = assay: Test Example 6: spray-coated yellow Kent paper (Production Example 5) in net cage, hatching inhibition; format: in vivo, Bemisia tabaci; settings: yellow Kent paper 15 cm x 15 cm, 1 g/m², spray-coated from acetone; eggs laid on kidney bean
Description: One part of the insect growth regulator is dissolved in 99 parts of acetone. One hundred grams of the resulting solution is spray-coated onto a square yellow Kent paper having a side of 100 cm to obtain a material for controlling pests containing 1 g/m² of the active ingredient. A material for controlling pests with pyriproxyfen as insect growth regulator prepared according to Production Example 5 was formed into a size of 15 cm x 15 cm. It was set on one wall surface of a nylon net cage of 30 cm x 30 cm x 30 cm in size. About 100 adults of sweetpotato whitefly were released in the cage together with kidney bean on which the adults had been parasitized. One day after release of the adults, a potted kidney bean having no adults parasitized thereon was set in the cage for oviposition. Among the eggs laid on the potted kidney bean until the next day, the number of unhatched eggs was counted.

greenhouse whiteflies = assay: Test Example 1: yellow cloth material (Production Example 2) set beside tomato, count of adults; format: in vivo, Trialeurodes vaporariorum
Description: (§1) 0.4 Part of the insect growth regulator is dissolved in 40 parts of acetone and further 0.8 part of rape seed oil is added thereto. Thirty-one milliliters of the resulting solution is absorbed in a yellow cloth of 21 cm x 92 cm in size. Acetone is then vaporized to obtain a material for controlling pests containing 0.16 mg/cm² of the active ingredient. A material for controlling pests with pyriproxyfen as insect growth regulator was prepared according to Production Example 2. It was set at the same height as that of a container (80 cm x 112 cm x 45 cm) in which tomato having greenhouse whiteflies parasitized thereon had been planted. On the other hand, a yellow cloth containing no insect growth regulator was set as a control at a distance of about 8 m. On the predetermined day, the number of greenhouse whitefly adults parasitized on the tomato was counted.

sweetpotato whitefly [2] = assay: Test Example 9: yellow Kent paper (Production Example 8) in net cage, hatching inhibition; format: in vivo, Bemisia tabaci; settings: yellow Kent paper 15 cm x 15 cm, 1 g/m², Solvesso 200; eggs laid on kidney bean
Description: Ten parts of the insect growth regulator is dissolved in 90 parts of a mineral oil. 0.225 Gram of the resulting solution is absorbed in a square yellow Kent paper having a side of 15 cm to obtain a material for controlling pests containing 1 g/m² of the active ingredient. A material for controlling pests containing pyriproxyfen (insect growth regulator) and Solvesso 200 (mineral oil) prepared according to Production Example 8 was formed into a size of 15 cm x 15 cm. It was set on one wall surface of a nylon net cage of 30 cm x 30 cm x 30 cm in size. About 100 adults of sweetpotato whitefly were released in the cage together with kidney bean on which the adults had been parasitized. One day after release of the adults, a potted kidney bean having no adults parasitized thereon was set in the cage for oviposition. Among the eggs laid on the potted kidney bean until the next day, the number of untached eggs was counted.

sweetpotato whiteflies = assay: Test Example 2: yellow cloth material (Production Example 2), pest-controlling effect, count of adults; format: in vivo, Bemisia tabaci; settings: 0.16 mg/cm²
Description: as §1, with “counted. Table 1 In the same manner as in Test Example 1, the pest-controlling effect on sweetpotato whiteflies was examined.” for “counted.”

sweetpotato whitefly [3] = assay: Test Example 7: yellow Kent paper (Production Example 6) in net cage, hatching inhibition; format: in vivo, Bemisia tabaci; settings: yellow Kent paper 15 cm x 15 cm, 5 g/m², cotton seed oil, tetradecane, Span 85; eggs laid on kidney bean
Description: Five parts of the insect growth regulator is dissolved in 65 parts of a vegetable oil, and then 20 parts of a mineral oil and 10 parts of a surface active agent are added thereto and mixed. 2.25 Grams of the resulting solution is absorbed in a square yellow Kent paper having a side of 15 cm to obtain a material for controlling pests containing 5 g/m² of the active ingredient. The material for controlling pests containing pyriproxyfen (insect growth regulator), a cotton seed oil (vegetable oil), tetradecane (mineral oil) and Span 85® (surface active agent produced by ICI Americas Inc.) prepared according to Production Example 6 was formed into a size of 15 cm x 15 cm. It was set on one wall surface of a nylon net cage of 30 cm x 30 cm x 30 cm in size. About 100 adults of sweetpotato whitefly were released in the cage together with kidney bean on which the adults had been parasitized. One day after release of the adults, a potted kidney bean having no adults parasitized thereon was set in the cage for oviposition. Among the eggs laid on the potted kidney bean until the next day, the number of unhatched eggs was counted.

## CC(COc1ccc(Oc2ccccc2)cc1)Oc1ccccn1 (centres unmarked) [pyriproxyfen, 4-phenoxyphenyl 2-(2-pyridyloxy)propyl ether]
Thrips palmi; 0 days elapsed after setting, blue cloth 15 cm x 15 cm
  number of Thrips palmi adults parasitized on the cucumbers: 5
Thrips palmi; 7 days elapsed after setting, blue cloth
  number of Thrips palmi adults parasitized on the cucumbers: 5
Thrips palmi; 14 days elapsed after setting, blue cloth
  number of Thrips palmi adults parasitized on the cucumbers: 3
Thrips palmi; 21 days elapsed after setting, blue cloth
  number of Thrips palmi adults parasitized on the cucumbers: 2
Sweetpotato whitefly [1]
  Hatching inhibitory rate (%): 99.0%
Greenhouse whiteflies; 0 days elapsed after setting, 0.16 mg/cm² active ingredient, rape seed oil
  number of greenhouse whitefly adults parasitized on the tomato (mean value per cup): 102
Greenhouse whiteflies; 7 days elapsed after setting, 0.16 mg/cm²
  number of greenhouse whitefly adults parasitized on the tomato (mean value per cup): 82
Greenhouse whiteflies; 14 days elapsed after setting, 0.16 mg/cm²
  number of greenhouse whitefly adults parasitized on the tomato (mean value per cup): 82
Greenhouse whiteflies; 18 days elapsed after setting, 0.16 mg/cm²
  number of greenhouse whitefly adults parasitized on the tomato (mean value per cup): 53
Greenhouse whiteflies; 28 days elapsed after setting, 0.16 mg/cm²
  number of greenhouse whitefly adults parasitized on the tomato (mean value per cup): 18
Greenhouse whiteflies; 35 days elapsed after setting, 0.16 mg/cm²
  number of greenhouse whitefly adults parasitized on the tomato (mean value per cup): 12
Greenhouse whiteflies; 42 days elapsed after setting, 0.16 mg/cm²
  number of greenhouse whitefly adults parasitized on the tomato (mean value per cup): 5
Sweetpotato whitefly [2]
  Hatching inhibitory rate (%): 98.2%
Sweetpotato whiteflies; 0 days elapsed after setting
  number of sweetpotato whitefly adults (pest-controlling effect): 53
Sweetpotato whiteflies; 7 days elapsed after setting
  number of sweetpotato whitefly adults (pest-controlling effect): 40
Sweetpotato whiteflies; 14 days elapsed after setting
  number of sweetpotato whitefly adults (pest-controlling effect): 35
Sweetpotato whiteflies; 18 days elapsed after setting
  number of sweetpotato whitefly adults (pest-controlling effect): 20
Sweetpotato whiteflies; 29 days elapsed after setting
  number of sweetpotato whitefly adults (pest-controlling effect): 10
Sweetpotato whiteflies; 35 days elapsed after setting
  number of sweetpotato whitefly adults (pest-controlling effect): 1
Sweetpotato whitefly [3]
  Hatching inhibitory rate (%): 90.6%
